Test results: PMC4871627 (Journal of medicinal chemistry, 2016)

Tests used:
HIV RT polymerase = HIV RT polymerase (Human immunodeficiency virus type 1 group M subtype B, UniProt P04585); format: biochemical, HIV-1; conditions: RNase H with HTS-1 as substrate
HIV integrase = HIV integrase (Human immunodeficiency virus type 1 group M subtype B, UniProt P04585); assay: HIV IN strand transfer; format: biochemical, HIV-1; conditions: INST IC50, tested 0.13-100 µM

SMILES	SI (IC50 RT pol / IC50 RNase H) (HIV RT polymerase)	IC50 (HIV integrase)
Cc1ccc(-c2ccc(Nc3cc(=O)n(O)c(=O)[nH]3)cc2)cc1 [11b, 3-Hydroxy-6-((4'-methyl-[1,1'-biphenyl]-4-yl)amino)pyrimidine-2,4(1H,3H)-dione]	5.7 (14)	–
COc1ccc(-c2cccc(Nc3cc(=O)n(O)c(=O)[nH]3)c2)cc1 [11j, 3-Hydroxy-6-((4'-methoxy-[1,1'-biphenyl]-3-yl)amino)pyrimidine-2,4(1H,3H)-dione]	6.3 (32)	> 100000 nM
COc1ccc(-c2cccc(Nc3cc(=O)n(O)c(=O)[nH]3)c2)c(OC)c1 [11l, 6-((2',4'-Dimethoxy-[1,1'-biphenyl]-3-yl)amino)-3-hydroxypyrimidine-2,4(1H,3H)-dione]	–	1200 to 1300 nM
COc1cccc(OC)c1-c1cccc(Nc2cc(=O)n(O)c(=O)[nH]2)c1 [11m, 6-((2',6'-Dimethoxy-[1,1'-biphenyl]-3-yl)amino)-3-hydroxypyrimidine-2,4(1H,3H)-dione]	–	1200 to 1300 nM
O=c1cc(Nc2cccc(-c3ccc(F)cc3)c2)[nH]c(=O)n1O [11o, 6-((4'-Fluoro-[1,1'-biphenyl]-3-yl)amino)-3-hydroxypyrimidine-2,4(1H,3H)-dione]	6.6 (33)	> 100000 nM
